In ChEMBL document CHEMBL5465560, “Selectivity Literature for EUbOPEN Chemogenomic Library” (2024):

Legend:
[1] = target: T1, Dual specificity tyrosine-phosphorylation-regulated kinase 3 (Homo sapiens, UniProt O43781); test: Selectivity interaction (Enzymatic assay (Eurofins)) EUB0001049a DYRK3
T1 sequence (O43781 whole entry): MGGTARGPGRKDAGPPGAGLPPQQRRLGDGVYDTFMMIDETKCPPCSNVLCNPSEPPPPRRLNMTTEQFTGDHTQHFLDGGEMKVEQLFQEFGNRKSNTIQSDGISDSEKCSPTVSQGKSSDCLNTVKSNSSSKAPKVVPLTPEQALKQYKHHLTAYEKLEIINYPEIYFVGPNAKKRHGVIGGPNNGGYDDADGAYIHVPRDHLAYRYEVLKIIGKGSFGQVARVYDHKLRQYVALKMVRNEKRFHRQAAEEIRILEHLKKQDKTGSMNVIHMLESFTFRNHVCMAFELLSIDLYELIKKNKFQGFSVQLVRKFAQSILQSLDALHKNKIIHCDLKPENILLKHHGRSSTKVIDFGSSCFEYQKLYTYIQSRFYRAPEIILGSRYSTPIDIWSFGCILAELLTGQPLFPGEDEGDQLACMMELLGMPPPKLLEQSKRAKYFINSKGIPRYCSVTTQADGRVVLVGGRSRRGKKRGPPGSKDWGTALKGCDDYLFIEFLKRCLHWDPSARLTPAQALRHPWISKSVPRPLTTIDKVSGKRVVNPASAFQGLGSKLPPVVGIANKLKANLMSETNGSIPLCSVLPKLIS

[2] = target: Histone-lysine N-methyltransferase SUV39H2 (Homo sapiens) (UniProt Q9H5I1); settings: at 1 µM
[3] = target: Ribosomal protein S6 kinase alpha-1 (Homo sapiens, UniProt Q15418); test: Selectivity interaction (Kinase panel (KiNativ target engagement assay in Jurkat cells)) EUB0001635a RPS6KA1; format: cell-based; settings: Selectivity number of off-targets 0.0, Selectivity number of targets 233.0, Source Knowledge https://www.sciencedirect.com/science/article/pii/S2451945619300674?via%3Dihub, at 1 µM
[4] = target: Cyclin-dependent kinase 9 (Homo sapiens, UniProt P50750); settings: at 10 µM
[5] = target: Serine/threonine-protein kinase N2 (Homo sapiens, UniProt Q16513); test: Selectivity interaction (ActivX KiNativ screen (kinase selectivity in THP-1 cell lysates)) EUB0000639a PKN2; format: subcellular; settings: lysate
[6] = target: T2, Dual specificity mitogen-activated protein kinase kinase 7 (Homo sapiens) (UniProt O14733); test: Selectivity interaction (KinomeScan (DiscoverX)) EUB0000595a MAP2K7; settings: at 10 µM
T2 sequence (whole entry): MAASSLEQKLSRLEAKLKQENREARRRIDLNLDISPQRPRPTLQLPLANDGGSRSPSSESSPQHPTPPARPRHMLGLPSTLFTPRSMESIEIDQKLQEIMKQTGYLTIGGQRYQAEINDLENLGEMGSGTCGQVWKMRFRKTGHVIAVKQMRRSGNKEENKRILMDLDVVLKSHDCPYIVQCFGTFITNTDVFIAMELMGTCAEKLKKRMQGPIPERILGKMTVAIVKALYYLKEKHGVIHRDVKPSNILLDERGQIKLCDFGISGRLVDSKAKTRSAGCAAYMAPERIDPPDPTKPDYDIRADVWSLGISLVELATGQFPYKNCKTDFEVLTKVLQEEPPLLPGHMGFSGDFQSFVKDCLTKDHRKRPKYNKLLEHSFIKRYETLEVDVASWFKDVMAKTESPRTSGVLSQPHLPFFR

[7] = target: Dual specificity protein kinase CLK2 (Homo sapiens, UniProt P49760); test: Selectivity interaction (KinomeScan (DiscoverX)) EUB0000092b CLK2; settings: at 10 µM
[8] = target: T3, Casein kinase I isoform alpha-like (Homo sapiens) (UniProt Q8N752); settings: at 10 µM
T3 sequence (whole entry): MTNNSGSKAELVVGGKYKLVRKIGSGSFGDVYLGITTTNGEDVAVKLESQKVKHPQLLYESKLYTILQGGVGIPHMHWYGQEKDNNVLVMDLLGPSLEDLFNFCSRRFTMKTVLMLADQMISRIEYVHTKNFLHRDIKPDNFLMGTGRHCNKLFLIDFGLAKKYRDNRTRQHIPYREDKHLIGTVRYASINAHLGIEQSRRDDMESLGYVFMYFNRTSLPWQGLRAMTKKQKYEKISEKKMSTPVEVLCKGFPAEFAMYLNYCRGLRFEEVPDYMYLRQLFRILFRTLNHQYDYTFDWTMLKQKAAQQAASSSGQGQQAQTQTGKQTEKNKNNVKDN

[9] = target: T4, Serine/threonine-protein kinase D2 (Homo sapiens) (UniProt Q9BZL6); test: Selectivity interaction (KinomeScan (DiscoverX)) EUB0000695a PRKD2; settings: at 100 nM
T4 sequence (whole entry): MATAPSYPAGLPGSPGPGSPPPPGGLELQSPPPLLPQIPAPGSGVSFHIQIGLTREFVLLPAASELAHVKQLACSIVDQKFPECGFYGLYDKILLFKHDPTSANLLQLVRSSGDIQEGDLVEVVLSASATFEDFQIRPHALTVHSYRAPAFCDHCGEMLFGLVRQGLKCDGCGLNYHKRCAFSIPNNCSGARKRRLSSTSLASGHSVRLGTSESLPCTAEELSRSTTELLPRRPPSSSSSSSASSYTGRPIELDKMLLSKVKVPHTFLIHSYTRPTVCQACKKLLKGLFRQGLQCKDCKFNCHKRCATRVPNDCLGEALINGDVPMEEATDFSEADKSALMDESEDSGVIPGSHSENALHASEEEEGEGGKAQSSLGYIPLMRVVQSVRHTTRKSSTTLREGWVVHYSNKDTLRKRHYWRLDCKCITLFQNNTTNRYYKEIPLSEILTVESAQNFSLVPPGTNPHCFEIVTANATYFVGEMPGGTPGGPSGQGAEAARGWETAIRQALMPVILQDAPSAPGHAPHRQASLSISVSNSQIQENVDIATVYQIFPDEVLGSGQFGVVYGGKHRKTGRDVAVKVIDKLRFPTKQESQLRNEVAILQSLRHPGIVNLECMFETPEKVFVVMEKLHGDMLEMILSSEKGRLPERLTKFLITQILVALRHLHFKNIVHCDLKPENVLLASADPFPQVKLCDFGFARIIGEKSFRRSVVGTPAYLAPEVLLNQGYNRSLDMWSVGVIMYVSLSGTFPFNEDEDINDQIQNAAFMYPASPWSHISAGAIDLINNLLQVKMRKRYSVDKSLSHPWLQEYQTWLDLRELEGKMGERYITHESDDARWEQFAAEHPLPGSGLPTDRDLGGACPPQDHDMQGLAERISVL

Sequence of Serine/threonine-protein kinase N2 (Q16513 whole entry, looked up): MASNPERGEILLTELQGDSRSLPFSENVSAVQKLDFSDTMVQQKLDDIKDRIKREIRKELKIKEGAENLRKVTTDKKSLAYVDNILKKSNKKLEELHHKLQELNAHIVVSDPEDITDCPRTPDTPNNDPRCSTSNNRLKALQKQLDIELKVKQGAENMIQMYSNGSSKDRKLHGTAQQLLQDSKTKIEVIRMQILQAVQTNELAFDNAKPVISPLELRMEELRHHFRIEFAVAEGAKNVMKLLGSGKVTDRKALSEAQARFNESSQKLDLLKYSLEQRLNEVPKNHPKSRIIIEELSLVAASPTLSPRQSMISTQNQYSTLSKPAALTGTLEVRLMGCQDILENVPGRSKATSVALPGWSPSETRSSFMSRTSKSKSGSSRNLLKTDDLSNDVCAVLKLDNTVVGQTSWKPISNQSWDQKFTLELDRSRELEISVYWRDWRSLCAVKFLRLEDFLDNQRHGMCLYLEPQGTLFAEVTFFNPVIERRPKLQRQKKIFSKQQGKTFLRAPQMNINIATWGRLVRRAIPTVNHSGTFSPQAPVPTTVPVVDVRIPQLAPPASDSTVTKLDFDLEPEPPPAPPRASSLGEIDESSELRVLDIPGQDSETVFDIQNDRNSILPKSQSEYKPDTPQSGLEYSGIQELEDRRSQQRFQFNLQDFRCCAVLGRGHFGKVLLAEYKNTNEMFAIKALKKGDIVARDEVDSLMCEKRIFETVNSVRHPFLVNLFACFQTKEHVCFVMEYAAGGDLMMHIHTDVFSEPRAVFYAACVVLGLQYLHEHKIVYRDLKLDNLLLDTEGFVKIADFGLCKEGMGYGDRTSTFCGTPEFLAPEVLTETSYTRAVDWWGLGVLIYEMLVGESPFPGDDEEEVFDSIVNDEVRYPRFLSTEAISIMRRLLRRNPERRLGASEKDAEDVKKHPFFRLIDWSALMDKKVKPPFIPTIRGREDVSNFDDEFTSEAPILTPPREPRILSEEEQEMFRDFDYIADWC
Sequence of Cyclin-dependent kinase 9 (P50750 whole entry): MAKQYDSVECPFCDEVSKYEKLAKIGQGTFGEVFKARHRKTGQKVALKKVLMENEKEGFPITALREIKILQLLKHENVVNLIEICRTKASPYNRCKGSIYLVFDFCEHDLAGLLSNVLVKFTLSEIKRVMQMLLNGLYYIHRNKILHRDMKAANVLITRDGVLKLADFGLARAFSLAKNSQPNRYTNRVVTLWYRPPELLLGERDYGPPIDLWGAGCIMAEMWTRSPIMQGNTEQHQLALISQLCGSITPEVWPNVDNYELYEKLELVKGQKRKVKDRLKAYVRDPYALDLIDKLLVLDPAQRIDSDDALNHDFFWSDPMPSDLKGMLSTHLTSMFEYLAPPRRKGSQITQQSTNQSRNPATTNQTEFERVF
Sequence of Histone-lysine N-methyltransferase SUV39H2 (Homo sapiens) (Q9H5I1 whole entry): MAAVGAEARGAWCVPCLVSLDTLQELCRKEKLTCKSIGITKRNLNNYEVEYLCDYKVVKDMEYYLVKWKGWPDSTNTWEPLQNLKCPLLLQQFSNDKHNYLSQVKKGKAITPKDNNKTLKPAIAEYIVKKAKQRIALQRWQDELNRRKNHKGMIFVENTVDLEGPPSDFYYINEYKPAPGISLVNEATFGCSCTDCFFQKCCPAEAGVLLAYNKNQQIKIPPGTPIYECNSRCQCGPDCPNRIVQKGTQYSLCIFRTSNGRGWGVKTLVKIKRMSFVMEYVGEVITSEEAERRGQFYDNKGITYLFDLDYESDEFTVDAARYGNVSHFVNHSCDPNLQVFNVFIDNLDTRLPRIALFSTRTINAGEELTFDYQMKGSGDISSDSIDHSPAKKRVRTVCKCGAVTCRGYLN
Sequence of Dual specificity protein kinase CLK2 (P49760 whole entry, looked up, canonical isoform): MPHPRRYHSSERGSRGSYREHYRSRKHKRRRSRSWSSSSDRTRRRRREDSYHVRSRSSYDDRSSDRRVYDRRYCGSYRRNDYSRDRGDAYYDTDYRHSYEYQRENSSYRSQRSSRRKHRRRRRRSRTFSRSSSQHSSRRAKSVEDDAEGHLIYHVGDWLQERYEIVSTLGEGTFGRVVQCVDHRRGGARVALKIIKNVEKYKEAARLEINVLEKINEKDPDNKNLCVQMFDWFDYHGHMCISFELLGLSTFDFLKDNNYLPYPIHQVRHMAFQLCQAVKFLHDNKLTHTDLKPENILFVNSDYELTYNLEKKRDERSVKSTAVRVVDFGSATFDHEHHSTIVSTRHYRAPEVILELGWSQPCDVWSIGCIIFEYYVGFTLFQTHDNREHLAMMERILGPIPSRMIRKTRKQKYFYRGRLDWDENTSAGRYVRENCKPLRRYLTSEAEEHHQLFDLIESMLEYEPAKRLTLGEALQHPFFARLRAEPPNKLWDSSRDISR
Sequence of Ribosomal protein S6 kinase alpha-1 (Q15418 whole entry): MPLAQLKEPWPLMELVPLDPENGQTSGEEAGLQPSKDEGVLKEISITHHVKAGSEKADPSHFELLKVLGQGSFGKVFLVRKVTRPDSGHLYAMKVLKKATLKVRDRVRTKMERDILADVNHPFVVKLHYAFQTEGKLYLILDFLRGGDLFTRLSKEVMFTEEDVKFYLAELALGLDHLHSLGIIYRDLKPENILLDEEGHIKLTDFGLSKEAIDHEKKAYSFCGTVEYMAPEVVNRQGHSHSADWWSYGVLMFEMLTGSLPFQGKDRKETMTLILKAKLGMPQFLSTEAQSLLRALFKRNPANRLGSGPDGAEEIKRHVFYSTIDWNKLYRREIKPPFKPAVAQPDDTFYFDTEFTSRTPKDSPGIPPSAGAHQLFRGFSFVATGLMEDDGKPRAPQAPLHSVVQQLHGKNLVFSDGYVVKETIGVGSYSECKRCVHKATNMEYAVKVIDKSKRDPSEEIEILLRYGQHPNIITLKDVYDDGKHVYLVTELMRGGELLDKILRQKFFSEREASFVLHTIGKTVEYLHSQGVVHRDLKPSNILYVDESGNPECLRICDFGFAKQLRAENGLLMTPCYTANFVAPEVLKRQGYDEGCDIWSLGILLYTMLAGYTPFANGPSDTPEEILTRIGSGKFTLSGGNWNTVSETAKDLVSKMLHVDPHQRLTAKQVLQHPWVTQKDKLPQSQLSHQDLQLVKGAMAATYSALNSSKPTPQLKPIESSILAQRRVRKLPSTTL

Compound: COc1cc(Nc2nc(C)cc(-c3cnn4nc(OC)ccc34)n2)cc(C(F)(F)F)c1
- IC50 [1]: > 10 µM

Compound: CNCCN1CCC(c2cc(CN(C)C(=O)c3cccc(Oc4ccccc4)c3)ccn2)CC1
- % activity [2]: > 90%

Compound: C=CC(=O)Nc1ccc(C(=O)Nc2[nH]nc3c2CN(C(=O)N[C@H](CN(C)C)c2ccccc2)C3(C)C)cc1
- % of engagement [3]: 14.4%

Compound: CCN(CC)CCCCNc1ncc2cc(-c3cc(OC)cc(OC)c3)c(NC(=O)NC(C)(C)C)nc2n1
- % of control [4]: 100%

Compound: CC[C@@H]1[C@H](F)C(=O)N[C@@H]1COc1nccc2cc(C(N)=O)c(OC)cc12 [ZIMLOVISERTIB]
- % of inhibition ([5]; at 0.01 µM): -6.1%
- % of inhibition ([5]; at 0.04 µM): -5.7%
- % of inhibition ([5]; at 0.2 µM): 2.9%
- % of inhibition ([5]; at 1 µM): 18.9%
- % of inhibition ([5]; at 5 µM): -9.1%

Compound: COCC(=O)NC/C=C/c1ccc2ncnc(Nc3ccc(Oc4ccc(C)nc4)c(C)c3)c2c1 [CP-724714]
- % of control [6]: 100%

Compound: CCC(=O)N1CCN(c2ccc(-n3c(=O)ccc4cnc5ccc(-c6cnc7ccccc7c6)cc5c43)cc2C(F)(F)F)CC1
- % of control [7]: 65%

Compound: Cc1cc([C@@H](C)Nc2ccccc2C(=O)O)c2nc(N3CCOCC3)cc(=O)n2c1 [AZD-6482]
- % of control [8]: 100%

Compound: Cc1cc(F)c(C(=O)Nc2cccc(-c3nncn3C(C)C)n2)cc1-n1cnc(C2CC2)c1
- % of control [9]: 58%
